Patent publication US12617773B2, “Azetidin-3-ylmethanol derivatives as CCR6 receptor modulators” (Idorsia Pharmaceuticals Ltd, priority 2020, dated 2026)

Biological target: T1, human CCR6 (Homo sapiens, UniProt P51684)
T1 construct: expressed in transfected cells; host or cells: HEK-293
T1 sequence (P51684 1-374): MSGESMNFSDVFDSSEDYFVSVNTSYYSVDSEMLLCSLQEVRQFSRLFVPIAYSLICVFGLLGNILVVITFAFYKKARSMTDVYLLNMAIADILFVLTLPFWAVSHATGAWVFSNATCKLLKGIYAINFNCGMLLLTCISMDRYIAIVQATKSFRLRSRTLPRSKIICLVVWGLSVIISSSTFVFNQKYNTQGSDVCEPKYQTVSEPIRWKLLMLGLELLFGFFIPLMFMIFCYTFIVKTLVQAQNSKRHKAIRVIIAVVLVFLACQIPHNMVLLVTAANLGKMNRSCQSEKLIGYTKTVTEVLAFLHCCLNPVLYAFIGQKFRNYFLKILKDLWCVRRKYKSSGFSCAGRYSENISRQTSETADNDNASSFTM
Assay: FLIPR assay (inhibition of CCL20-induced calcium signal)
Type: cell-based
Settings: HEK-293 cells expressing human CCR6; mean values where determined several times; read-out: FLIPR IC50
Procedure: FLIPR assay: The bioactivity of compounds is tested in a fluorometric imaging plate reader (FLIPR: Molecular Devices) using engineered HEK-293 cells expressing the human CCR6 (GenBank: AY242126). Frozen cells are plated on Poly-L-Lysine precoated 384-well plates 2 days prior to bioassay in DMEM medium supplemented with 10% FCS and 1% Penicillin-Streptomycin. […] This buffer, but lacking the dye, is also used for washing and compound dilution steps (assay buffer). Cells are washed free of excess dye with a wash-station (Biotek), leaving 40 microliter of assay buffer at the end. Cells were incubated for 15 minutes at room temperature in the dark, before adding compounds. Stock solutions of test compounds are made up at a concentration of 10 mM in DMSO, and serially diluted first in DMSO and then transferred in assay buffer to concentrations required for inhibition dose response curves. After a 45-minute incubation period in assay buffer at room temperature, 10 microliters of each compound dilution are transferred from a compound plate to the plate containing the recombinant cells in the FLIPR instrument according to the manufacturer's instructions. After cells and compounds were preincubated for 30 minutes at room temperature in the dark, 10 microliter agonist CCL20 (Peprotech) at a final concentration of 10 nM is added, again using the FLIPR instrument. Changes in fluorescence are monitored before and after addition of the test compounds and agonist. Emission peak values above base level after CCL20 addition are exported after base line subtraction.
The calculated IC50 values may fluctuate depending on the daily assay performance. Fluctuations of this kind are known to those skilled in the art.

Row | SMILES | IC50 [nM]
1 | COc1cccc(C(C)(O)C#Cc2cncc([C@@](O)(c3ccc(C(C)C)cc3)C3(C)CN(C)C3)c2)n1 (stereo partly drawn) [Example 37] | 20.7
2 | CC(C)c1ccc([C@](O)(c2cncc(C#CC(C)(O)c3ncccn3)c2)C2(C)CN(C)C2)cc1 (stereo partly drawn) [Example 38] | 130
3 | Cc1cc(C(C)(O)C#Cc2cncc([C@@](O)(c3ccc(C(C)C)cc3)C3(C)CN(C)C3)c2)nn1C (stereo partly drawn) [Example 39] | 76.5
4 | Cc1cc(C(C)(O)C#Cc2cncc(C(O)(c3ccc(C(C)C)cc3)C3(C)CN(C)C3)c2)ncn1 (stereo not drawn) [Example 40] | 92.5
5 | Cc1cc(C(O)C#Cc2cncc([C@@](O)(c3ccc(C(C)C)cc3)C3(C)CN(C)C3)c2)nn1C (stereo partly drawn) [Example 41] | 133
6 | CC(C)c1ccc([C@](O)(c2cncc(C#CC3(O)CCCc4cccnc43)c2)C2(C)CN(C)C2)cc1 (stereo partly drawn) [Example 42] | 41.5
7 | CC(C)c1ccc([C@](O)(c2cncc(C#CC3(O)CCc4cccnc43)c2)C2(C)CN(C)C2)cc1 (stereo partly drawn) [Example 43] | 55.9
8 | CCC(O)(C#Cc1cncc([C@@](O)(c2ccc(C(C)C)cc2)C2(C)CN(C)C2)c1)c1ccccn1 (stereo partly drawn) [Example 44] | 63.3
9 | CCC(O)(C#Cc1cncc([C@@](O)(c2ccc(C(C)C)cc2)C2(C)CN(C)C2)c1)c1cccc(OC)n1 (stereo partly drawn) [Example 45] | 32.8
10 | CC(C)C(=O)N1CC(O)(C#Cc2cncc([C@@](O)(c3ccc(C(C)C)cc3)C3(C)CN(C)C3)c2)C1 [Example 46] | 145
11 | CC(C)c1ccc([C@](O)(c2cncc(C#Cc3cc4ccccc4[nH]3)c2)C2(C)CN(C)C2)cc1 [Example 47, (R)-(1,3-Dimethyl-azetidin-3-yl)-[5-(1H-indol-2-ylethynyl)-pyridin-3-yl]-(4-isopropyl-phenyl)-methanol] | 35
12 | COCCCc1cncc(C(O)(c2ccc(C(C)C)cc2)C2(C)CN(C)C2)c1 (stereo not drawn) [Example 48, (1,3-Dimethyl-azetidin-3-yl)-(4-isopropyl-phenyl)-[5-(3-methoxy-propyl)-pyridin-3-yl]-methanol] | 100
13 | CC(C)c1ccc([C@](O)(c2cncc(CCCO)c2)C2(C)CN(C)C2)cc1 [Example 49] | 219
14 | CC(C)c1ccc([C@](O)(c2cncc(CCC(C)(C)O)c2)C2(C)CN(C)C2)cc1 [Example 50] | 90.2
15 | CC(C)c1ccc([C@](O)(c2cncc(CC[C@H](C)O)c2)C2(C)CN(C)C2)cc1 [Example 51] | 134
16 | CC(C)c1ccc([C@](O)(c2cncc(CC[C@@H](C)O)c2)C2(C)CN(C)C2)cc1 [Example 52] | 200
17 | CC(C)c1ccc([C@](O)(c2cncc(CCC3(O)CCCC3)c2)C2(C)CN(C)C2)cc1 [Example 53] | 46.3
18 | CC(C)c1ccc([C@](O)(c2cncc(CCC3(O)CC3)c2)C2(C)CN(C)C2)cc1 [Example 54] | 66.9
19 | CC(C)c1ccc([C@](O)(c2cncc(CCC3(O)CN(C(=O)OC(C)(C)C)C3)c2)C2(C)CN(C)C2)cc1 [Example 55] | 65.8

Row | SMILES | IC50 [nM]
20 | CC(C)c1ccc([C@](O)(c2cncc(CCC3(O)CCC3)c2)C2(C)CN(C)C2)cc1 [Example 56] | 61
21 | CC(C)c1ccc([C@](O)(c2cncc(CCCCO)c2)C2(C)CN(C)C2)cc1 [Example 57] | 349
22 | CC(C)c1ccc([C@](O)(c2cncc(CCc3cnn(C)c3)c2)C2(C)CN(C)C2)cc1 [Example 58] | 440
23 | CC(C)c1ccc([C@](O)(c2cncc(CCC(O)c3ccccc3)c2)C2(C)CN(C)C2)cc1 (stereo partly drawn) [Example 59] | 7.1
24 | CC(C)c1ccc(C(O)(c2cncc(CCC(C)(O)c3ccccc3)c2)C2(C)CN(C)C2)cc1 (stereo not drawn) [Example 60] | 9.06
25 | CC(C)c1ccc([C@](O)(c2cncc(CCC(O)C(C)C)c2)C2(C)CN(C)C2)cc1 (stereo partly drawn) [Example 61] | 19.4
26 | CC(C)c1ccc([C@](O)(c2cncc(CCC3(O)CCOCC3)c2)C2(C)CN(C)C2)cc1 [Example 62] | 242
27 | CC(C)c1ccc([C@](O)(c2cncc(CCC(O)C3CCOCC3)c2)C2(C)CN(C)C2)cc1 (stereo partly drawn) [Example 63] | 601
28 | Cc1nn(C)cc1C(O)CCc1cncc([C@@](O)(c2ccc(C(C)C)cc2)C2(C)CN(C)C2)c1 (stereo partly drawn) [Example 64] | 441
29 | CC(C)c1ccc([C@](O)(c2cncc(CCC3CCOCC3)c2)C2(C)CN(C)C2)cc1 [Example 65] | 44.7
30 | Cc1nc(C(O)CCc2cncc([C@@](O)(c3ccc(C(C)C)cc3)C3(C)CN(C)C3)c2)cs1 (stereo partly drawn) [Example 66] | 223
31 | CC(C)c1ccc([C@](O)(c2cncc(CCC(C)(O)c3cccc(F)c3)c2)C2(C)CN(C)C2)cc1 (stereo partly drawn) [Example 67] | 11.8
32 | COc1ccc(C(C)(O)CCc2cncc([C@@](O)(c3ccc(C(C)C)cc3)C3(C)CN(C)C3)c2)cc1 (stereo partly drawn) [Example 68] | 17.9
33 | COc1ccccc1C(C)(O)CCc1cncc([C@@](O)(c2ccc(C(C)C)cc2)C2(C)CN(C)C2)c1 (stereo partly drawn) [Example 69] | 16.1
34 | CC(C)c1ccc([C@](O)(c2cncc(CCC(C)(O)c3ccn(C)n3)c2)C2(C)CN(C)C2)cc1 (stereo partly drawn) [Example 70] | 434
35 | Cc1nc(C(C)(O)CCc2cncc([C@@](O)(c3ccc(C(C)C)cc3)C3(C)CN(C)C3)c2)cs1 (stereo partly drawn) [Example 71] | 147
36 | COc1cccc(C(C)(O)CCc2cncc([C@@](O)(c3ccc(C(C)C)cc3)C3(C)CN(C)C3)c2)n1 (stereo partly drawn) [Example 72] | 15
37 | CC(C)c1ccc([C@](O)(c2cncc(CCC(C)(O)c3ncccn3)c2)C2(C)CN(C)C2)cc1 (stereo partly drawn) [Example 73] | 112
38 | Cc1cc(C(C)(O)CCc2cncc([C@@](O)(c3ccc(C(C)C)cc3)C3(C)CN(C)C3)c2)nn1C (stereo partly drawn) [Example 74] | 154

Row | SMILES | IC50 [nM]
39 | Cc1cc(C(C)(O)CCc2cncc(C(O)(c3ccc(C(C)C)cc3)C3(C)CN(C)C3)c2)ncn1 (stereo not drawn) [Example 75] | 184
40 | Cc1cc(C(O)CCc2cncc([C@@](O)(c3ccc(C(C)C)cc3)C3(C)CN(C)C3)c2)nn1C (stereo partly drawn) [Example 76] | 627
41 | CC(C)c1ccc([C@](O)(c2cncc(CCC3(O)CCCc4cccnc43)c2)C2(C)CN(C)C2)cc1 (stereo partly drawn) [Example 77] | 52.1
42 | CC(C)c1ccc([C@](O)(c2cncc(CCC3(O)CCc4cccnc43)c2)C2(C)CN(C)C2)cc1 (stereo partly drawn) [Example 78] | 80.6
43 | CCC(O)(CCc1cncc([C@@](O)(c2ccc(C(C)C)cc2)C2(C)CN(C)C2)c1)c1ccccn1 (stereo partly drawn) [Example 79] | 30
44 | CCC(O)(CCc1cncc(C(O)(c2ccc(C(C)C)cc2)C2(C)CN(C)C2)c1)c1cccc(OC)n1 (stereo not drawn) [Example 80] | 10.5
45 | CC(C)c1ccc([C@](O)(c2cncc(CCc3cc4ccccc4[nH]3)c2)C2(C)CN(C)C2)cc1 [Example 81] | 19.1
46 | CN1CC(C)([C@](O)(c2ccc(C3CC3)cc2)c2cncc(-c3nc(C4CCOCC4)no3)c2)C1 [Example 82, (R)-(4-Cyclopropyl-phenyl)-(1,3-dimethyl-azetidin-3-yl)-{5-[3-(tetrahydro-pyran-4-yl)-[1,2,4]oxadiazol-5-yl]-pyridin-3-yl}-methanol] | 185
47 | COCC(C)(C)c1noc(-c2cncc([C@@](O)(c3ccc(C4CC4)cc3)C3(C)CN(C)C3)c2)n1 [Example 83] | 128
48 | CN1CC(C)([C@](O)(c2ccc(C3CC3)cc2)c2cncc(-c3nc(COC4CCC4)no3)c2)C1 [Example 84] | 52.8
49 | CCCc1ccc([C@](O)(c2cncc(-c3nc(COC4CCOCC4)no3)c2)C2(C)CN(C)C2)cc1 [Example 85] | 89.9
50 | CCCc1ccc([C@](O)(c2cncc(-c3nc(C4CCOCC4)no3)c2)C2(C)CN(C)C2)cc1 [Example 86] | 75.3
51 | CCCc1ccc([C@](O)(c2cncc(-c3nc(COC4CCC4)no3)c2)C2(C)CN(C)C2)cc1 [Example 87] | 61.5
52 | CC(C)c1ccc([C@](O)(c2cncc(-c3nc(C4CCOCC4)no3)c2)C2(C)CN(C)C2)cc1 [Example 88] | 98.4
53 | CC(C)c1ccc([C@](O)(c2cncc(-c3nc(CN4CCOCC4)no3)c2)C2(C)CN(C)C2)cc1 [Example 89] | 231
54 | CC1CN(Cc2noc(-c3cncc([C@@](O)(c4ccc(C(C)C)cc4)C4(C)CN(C)C4)c3)n2)CC(C)O1 (stereo partly drawn) [Example 90] | 163
55 | CC(C)c1ccc([C@](O)(c2cncc(-c3nc(C4(C)CCOCC4)no3)c2)C2(C)CN(C)C2)cc1 [Example 91] | 46.2
56 | CC(C)c1ccc([C@](O)(c2cncc(-c3nc([C@@H]4C[C@H]5CC[C@@H]4O5)no3)c2)C2(C)CN(C)C2)cc1 [Example 92] | 81.5
57 | CC(C)c1ccc([C@](O)(c2cncc(-c3nc(COC4CCOCC4)no3)c2)C2(C)CN(C)C2)cc1 [Example 93] | 86.8
